Laboratory results: patent publication US7795295B2, “Small molecule inhibition of PDZ-domain interaction” (The Regents of the University of California, priority 2004, dated 2010)

How the values were obtained:
H460 cells = assay: Apoptosis by Annexin V FITC flow cytometry, H460; format: cell-based, human; settings: 10 μM for 3 days
Protocol: (§1) Compound 1 and other compounds of Tables 1A and 1B were similarly tested for apoptotic effects to represent the inhibitory effects of compounds on interaction between the PDZ domain of the Dishevelled (Dvl) protein and the Fz protein (Wnt receptor). Cell lines H460 and LOX were utilized, with the test compound being applied at 10 μM for 3 days. Cultured cells treated with the test compounds in the culture media were harvested by trypsinization and stained using an Annexin V FITC Apoptosis Detection kit (Oncogene Science, Cambridge, Mass.), according to the manufacturer's protocol. Stained cells were immediately analyzed by flow cytometry (FACScan; Becton-Dickinson, Franklin Lake, N.J.).

LOX cells = assay: Apoptosis by Annexin V FITC flow cytometry, LOX; format: cell-based, human; settings: 10 μM for 3 days
Protocol: as §1

[1] = Assay 2, library 2, control 10.24
[2] = Assay 2, library 2, control 9.67
[3] = Assay 1, library 1, control 9.22
[4] = Assay 1, library 1, control 10.85
[5] = Assay 3, library 3, control 7.59
[6] = Assay 3, library 3, control 8.81

Compound	apoptosis, % H460 (H460 cells; [1])	apoptosis, % LOX (LOX cells; [2])	apoptosis, % H460 (H460 cells; [3])	apoptosis, % LOX (LOX cells; [4])	apoptosis, % H460 (H460 cells; [5])	apoptosis, % LOX (LOX cells; [6])
CCCCC(=O)c1[nH]c2cc(C)c(C(=O)O)cc2c1CCCC(=O)O [Compound 42]	49.41%	15.22%	–	–	–	–
CCCCC(=O)c1[nH]c2cc(C)c(C(=O)OC)cc2c1CCc1ccccc1 [Compound 7]	–	–	13.92%	17.96%	–	–
CCCCC(=O)c1[nH]c2cc(C)c(C(=O)O)cc2c1CCCc1ccccc1 [Compound 40]	23.93%	16.5%	–	–	–	–
Cc1cc2[nH]c(C(O)CC(C)(C)C)c(-c3ccccc3)c2cc1C(=O)O (centres unmarked) [Compound 23]	–	–	–	–	12.09%	11.34%
CCCCC(O)c1[nH]c2cc(C)c(C(=O)O)cc2c1CC(C)C (centres unmarked) [Compound 11]	24.48%	14.83%	–	–	–	–
Cc1cc2[nH]c(C(O)CC(C)C)c(CCc3ccccc3)c2cc1C(=O)O (centres unmarked) [Compound 2]	–	–	34.21%	36.32%	–	–
Cc1cc2[nH]c(C(=O)CC3CCCC3)c(-c3ccccc3)c2cc1C(=O)O [Compound 46]	–	–	–	–	39.06%	38.6%
CCCCC(=O)c1[nH]c2cc(C)c(C(=O)O)cc2c1Cc1ccccc1 [Compound 39]	42.9%	29.35%	–	–	–	–
Cc1cc2[nH]c(C(=O)C3CCCCC3)c(-c3ccccc3)c2cc1C(=O)O [Compound 47]	–	–	–	–	49.77%	73.02%
Cc1cc2[nH]c(C(O)CC(C)C)c(-c3ccccc3)c2cc1C(=O)O (centres unmarked) [Compound 18]	–	–	–	–	21.11%	9.53%
CCCCCc1c(C(O)CCCC)[nH]c2cc(C)c(C(=O)O)cc12 (centres unmarked) [Compound 10]	39.64%	19.08%	–	–	–	–
Cc1cc2[nH]c(C(O)CC3CCCC3)c(CCc3ccccc3)c2cc1C(=O)O (centres unmarked) [Compound 4]	–	–	36.41%	32.52%	–	–
CCCCC(O)c1[nH]c2cc(C)c(C(=O)O)cc2c1CCCO (centres unmarked) [Compound 16]	15.7%	14.5%	–	–	–	–
CCCCC(O)c1[nH]c2cc(C)c(C(=O)O)cc2c1-c1ccccc1 (centres unmarked) [Compound 13]	35.51%	17.84%	–	–	–	–
Cc1cc2[nH]c(C(=O)CCc3ccccc3)c(CCc3ccccc3)c2cc1C(=O)O [Compound 34]	–	–	76.59%	44.73%	–	–
Cc1cc2[nH]c(C(=O)CCCc3ccccc3)c(-c3ccccc3)c2cc1C(=O)O [Compound 50]	–	–	–	–	41.75%	72.47%
CCC(C)C(=O)c1[nH]c2cc(C)c(C(=O)O)cc2c1-c1ccccc1 (centres unmarked) [Compound 44]	–	–	–	–	37.38%	54.13%
Cc1cc2[nH]c(C(=O)Cc3ccccc3)c(CCc3ccccc3)c2cc1C(=O)O [Compound 33]	–	–	12.66%	15.03%	–	–
CCC(C)C(=O)c1[nH]c2cc(C)c(C(=O)O)cc2c1CCc1ccccc1 (centres unmarked) [Compound 28]	–	–	58.76%	38.53%	–	–
CCCCC(=O)c1[nH]c2cc(C)c(C(=O)O)cc2c1C1CCCCC1 [Compound 37]	45.05%	7.49%	–	–	–	–
CCCCC(O)c1[nH]c2cc(C)c(C(=O)O)cc2c1CCCC(=O)O (centres unmarked) [Compound 17]	18.93%	15.62%	–	–	–	–
CCC(C)C(O)c1[nH]c2cc(C)c(C(=O)O)cc2c1-c1ccccc1 (centres unmarked) [Compound 19]	–	–	–	–	44.15%	47.62%
Cc1cc2[nH]c(C(=O)CCCC(=O)O)c(CCc3ccccc3)c2cc1C(=O)O [Compound 31]	–	–	9.07%	12.06%	–	–

Compound	apoptosis, % H460 (H460 cells; [1])	apoptosis, % LOX (LOX cells; [2])	apoptosis, % H460 (H460 cells; [3])	apoptosis, % LOX (LOX cells; [4])	apoptosis, % H460 (H460 cells; [5])	apoptosis, % LOX (LOX cells; [6])
Cc1cc2[nH]c(C(=O)C3CCCCC3)c(CCc3ccccc3)c2cc1C(=O)O [Compound 30]	–	–	78.07%	55.76%	–	–
Cc1cc2[nH]c(C(O)CC3CCCC3)c(-c3ccccc3)c2cc1C(=O)O (centres unmarked) [Compound 21]	–	–	–	–	31.22%	19.99%
CCCCC(O)c1[nH]c2cc(C)c(C(=O)O)cc2c1CCCc1ccccc1 (centres unmarked) [Compound 15]	37.4%	17.57%	–	–	–	–
CCCCC(=O)c1[nH]c2cc(C)c(C(=O)O)cc2c1CCCO [Compound 41]	19.96%	12.69%	–	–	–	–
Cc1cc2[nH]c(C(=O)CC(C)C)c(-c3ccccc3)c2cc1C(=O)O [Compound 43]	–	–	–	–	34.22%	20.24%
Cc1cc2[nH]c(C(=O)C(C)C)c(-c3ccccc3)c2cc1C(=O)O [Compound 45]	–	–	–	–	96.96%	86.71%
Cc1cc2[nH]c(C(=O)CCc3ccccc3)c(-c3ccccc3)c2cc1C(=O)O [Compound 49]	–	–	–	–	82.53%	96.34%
CCC(C)C(O)c1[nH]c2cc(C)c(C(=O)O)cc2c1CCc1ccccc1 (centres unmarked) [Compound 3]	–	–	79.9%	56.29%	–	–
Cc1cc2[nH]c(C(O)CCCC(=O)O)c(CCc3ccccc3)c2cc1C(=O)O (centres unmarked) [Compound 6]	–	–	8.62%	9.22%	–	–
Cc1cc2[nH]c(C(=O)c3ccccc3)c(CCc3ccccc3)c2cc1C(=O)O [Compound 32]	–	–	21.13%	15.36%	–	–
CCCCC(=O)c1[nH]c2cc(C)c(C(=O)O)cc2c1CCc1ccccc1 [Compound 26]	–	–	16.13%	16.86%	–	–
CCCCC(=O)c1[nH]c2cc(C)c(C(=O)O)cc2c1CC(C)C [Compound 36]	41.48%	13.51%	–	–	–	–
CCCCC(O)c1[nH]c2cc(C)c(C(=O)O)cc2c1C1CCCCC1 (centres unmarked) [Compound 12]	28.8%	15.83%	–	–	–	–
Cc1cc2[nH]c(C(=O)CC3CCCC3)c(CCc3ccccc3)c2cc1C(=O)O [Compound 29]	–	–	64.1%	74.11%	–	–
CCCCCc1c(C(=O)CCCC)[nH]c2cc(C)c(C(=O)O)cc12 [Compound 35]	34.73%	23.23%	–	–	–	–
Cc1cc2[nH]c(C(O)C3CCCCC3)c(-c3ccccc3)c2cc1C(=O)O (centres unmarked) [Compound 22]	–	–	–	–	16.22%	15.47%
Cc1cc2[nH]c(C(=O)CC(C)C)c(CCc3ccccc3)c2cc1C(=O)O [Compound 27]	–	–	16.91%	18.5%	–	–
Cc1cc2[nH]c(C(O)C3CCCCC3)c(CCc3ccccc3)c2cc1C(=O)O (centres unmarked) [Compound 5]	–	–	24.39%	27.15%	–	–
Cc1cc2[nH]c(C(O)CCc3ccccc3)c(-c3ccccc3)c2cc1C(=O)O (centres unmarked) [Compound 24]	–	–	–	–	26.58%	26.56%
Cc1cc2[nH]c(C(=O)CC(C)(C)C)c(-c3ccccc3)c2cc1C(=O)O [Compound 48]	–	–	–	–	24.48%	15.14%
CCCCC(=O)c1[nH]c2cc(C)c(C(=O)O)cc2c1-c1ccccc1 [Compound 38]	51.61%	13.58%	–	–	–	–
Cc1cc2[nH]c(C(O)C(C)C)c(-c3ccccc3)c2cc1C(=O)O (centres unmarked) [Compound 20]	–	–	–	–	28.9%	11.77%
CCCCC(O)c1[nH]c2cc(C)c(C(=O)O)cc2c1Cc1ccccc1 (centres unmarked) [Compound 14]	24.26%	11.88%	–	–	–	–
